Results from patent publication US10125111B2, “Benzofuran compounds for the treatment of hepatitis C” (BRISTOL-MYERS SQUIBB COMPANY, priority 2015, dated 2018).
Like-named read-outs stand apart in the source and are kept apart here.

Test system: genotype 1b (Con-1) HCV replicon
Test: HCV Replicon Luciferase Assay
Format: cell-based
Conditions: Hepatitis C virus, 72 h, Huh-7 genotype 1b replicon, Renilla luciferase, 3 days incubation
Protocol: The cell lines used to evaluate compounds consist of a human hepatocyte derived cell line (Huh-7) that constitutively expresses a genotype 1b (Con-1) HCV replicon or a genotype 1b (Con-1) HCV replicon with an asparagine replacing the cysteine at amino acid 316, or a genotype 2a (JFH-1) replicon, containing a Renilla luciferase reporter gene. These cells were maintained in Dulbecco's modified Eagle medium (DMEM) containing 10% FBS, 100 U/mL penicillin/streptomycin and 1.0 mg/mL G418.
To evaluate compound efficacy, titrated compounds were transferred to sterile 384-well tissue culture treated plates, and the plates were seeded with HCV replicon cells (50 μL at a density of 2.4×10^3 cells/well) in DMEM containing 4% FBS (final DMSO concentration at 0.5%). After 3 days incubation at 37° C., cells were analyzed for Renilla Luciferase activity using the EnduRen substrate (Promega cat #E6485) according to the manufacturer's directions. Briefly, the EnduRen substrate was diluted in DMEM and then added to the plates to a final concentration of 7.5 μM. The plates were incubated for at least 1 h at 37° C. then read on a Viewlux Imager (PerkinElmer) using a luminescence program. The 50% effective concentration (EC50) was calculated using the four-parameter logistic Formula noted above.
Compound EC50 data is expressed as A: <100 nM; B=100-1000 nM; C>1000 nM).

Compound | EC50 (read-out: EC50 1b (class)) | EC50 (read-out: EC50 (uM) 1b)
CNC(=O)c1c(-c2ccc(F)cc2)oc2cc(N(CC#N)S(C)(=O)=O)c(-c3cccc(C(=O)OC)c3)cc12 [Compound 1001] | < 0.1 µM | 0.0578 µM
CNC(=O)c1c(-c2ccc(F)cc2)oc2cc(N(CC#N)S(C)(=O)=O)c(-c3cccc(C(=O)NC(C)(C)C(F)(F)F)c3)cc12 [Compound 1002] | < 0.1 µM | –
CNC(=O)c1c(-c2ccc(F)cc2)oc2cc(N(CC3CC3)S(C)(=O)=O)c(-c3cccc(C(=O)OC)c3)cc12 [Compound 2001] | < 0.1 µM | –
CNC(=O)c1c(-c2ccc(F)cc2)oc2cc(N(CC3CC3)S(C)(=O)=O)c(-c3cccc(C(=O)O)c3)cc12 [Compound 2002] | > 1 µM | 7.55 µM
CNC(=O)c1c(-c2ccc(F)cc2)oc2cc(N(CC3CC3)S(C)(=O)=O)c(-c3cccc(C(=O)NC(C)(C)C(F)(F)F)c3)cc12 [Compound 2003] | < 0.1 µM | –
CNC(=O)c1c(-c2ccc(F)cc2)oc2cc(N(CC3CC3)S(C)(=O)=O)c(-c3cccc(C(=O)NC(CF)(CF)CF)c3)cc12 [Compound 2004] | < 0.1 µM | –
CNC(=O)c1c(-c2ccc(F)cc2)oc2cc(N(CC3CC3)S(C)(=O)=O)c(-c3cccc(C(=O)NC(C)(C)C#N)c3)cc12 [Compound 2005] | < 0.1 µM | 0.0147 µM
[2H]C([2H])([2H])C(NC(=O)c1cccc(-c2cc3c(C(=O)NC)c(-c4ccc(F)cc4)oc3cc2N(CC2CC2)S(C)(=O)=O)c1)(C([2H])([2H])[2H])C([2H])([2H])[2H] [Compound 2006] | < 0.1 µM | –
CNC(=O)c1c(-c2ccc(F)cc2)oc2cc(N(CCF)S(C)(=O)=O)c(-c3cccc(C(=O)NC(C)(C)C(F)(F)F)c3)cc12 [Compound 3003] | < 0.1 µM | –
CNC(=O)c1c(-c2ccc(F)cc2)oc2cc(N(CCF)S(C)(=O)=O)c(-c3cccc(C(=O)NC(CF)(CF)CF)c3)cc12 [Compound 3004] | < 0.1 µM | –
CNC(=O)c1c(-c2ccc(F)cc2)oc2cc(N(CCF)S(C)(=O)=O)c(-c3cccc(C(=O)NC(C)(C)C#N)c3)cc12 [Compound 3005] | < 0.1 µM | 0.005 µM
[2H]C([2H])([2H])C(NC(=O)c1cccc(-c2cc3c(C(=O)NC)c(-c4ccc(F)cc4)oc3cc2N(CCF)S(C)(=O)=O)c1)(C([2H])([2H])[2H])C([2H])([2H])[2H] [Compound 3006] | < 0.1 µM | –
CC[C@@H](NC(=O)c1cccc(-c2cc3c(C(=O)NC)c(-c4ccc(F)cc4)oc3cc2N(CCF)S(C)(=O)=O)c1)C1CC1 [Compound 3007] | < 0.1 µM | 0.0057 µM
CC[C@H](NC(=O)c1cccc(-c2cc3c(C(=O)NC)c(-c4ccc(F)cc4)oc3cc2N(CCF)S(C)(=O)=O)c1)C1CC1 [Compound 3008] | < 0.1 µM | –
CNC(=O)c1c(-c2ccc(F)cc2)oc2cc(N(CCF)S(C)(=O)=O)c(-c3cccc(C(=O)N[C@@H](C)C4CC4)c3)cc12 [Compound 3009] | < 0.1 µM | –
CNC(=O)c1c(-c2ccc(F)cc2)oc2cc(N(CCF)S(C)(=O)=O)c(-c3cccc(C(=O)NC(C4CC4)C4CC4)c3)cc12 [Compound 3010] | < 0.1 µM | 0.0056 µM
CNC(=O)c1c(-c2ccc(F)cc2)oc2cc(N(CCF)S(C)(=O)=O)c(-c3cccc(C(=O)NC4(C#N)CC4)c3)cc12 [Compound 3011] | < 0.1 µM | –
CNC(=O)c1c(-c2ccc(F)cc2)oc2cc(N(CCF)S(C)(=O)=O)c(-c3cccc(C(=O)NCC(F)(F)C(F)(F)F)c3)cc12 [Compound 3012] | < 0.1 µM | 0.0032 µM
CNC(=O)c1c(-c2ccc(F)cc2)oc2cc(N(CCF)S(C)(=O)=O)c(-c3cccc(C(=O)NC(C)(C)CF)c3)cc12 [Compound 3013] | < 0.1 µM | –
CNC(=O)c1c(-c2ccc(F)cc2)oc2cc(N(CCF)S(C)(=O)=O)c(-c3cccc(C(=O)NC(C)(C)C(=O)OC)c3)cc12 [Compound 3014] | < 0.1 µM | –
CNC(=O)c1c(-c2ccc(F)cc2)oc2cc(N(CCF)S(C)(=O)=O)c(-c3cccc(C(=O)NCC(C)(C)C)c3)cc12 [Compound 3015] | < 0.1 µM | –
CNC(=O)c1c(-c2ccc(F)cc2)oc2cc(N(CCF)S(C)(=O)=O)c(-c3cccc(C(=O)NC(C)(C)C)c3)cc12 [Compound 3016] | < 0.1 µM | –
CNC(=O)c1c(-c2ccc(F)cc2)oc2cc(N(CCF)S(C)(=O)=O)c(-c3cccc(C(=O)N4CCC(C)(C)C4)c3)cc12 [Compound 3017] | < 0.1 µM | 0.0063 µM
CNC(=O)c1c(-c2ccc(F)cc2)oc2cc(N(CCF)S(C)(=O)=O)c(-c3cccc(C(=O)N4CCCC4c4ccc(Cl)cc4)c3)cc12 (stereo not shown) [Compound 3018] | < 0.1 µM | –

Compound | EC50 (read-out: EC50 1b (class)) | EC50 (read-out: EC50 (uM) 1b)
CNC(=O)c1c(-c2ccc(F)cc2)oc2cc(N(CCF)S(C)(=O)=O)c(-c3cccc(C(=O)N4CCN(C)CC4c4ccccc4)c3)cc12 (stereo not shown) [Compound 3019] | < 0.1 µM | –
CNC(=O)c1c(-c2ccc(F)cc2)oc2cc(N(CCF)S(C)(=O)=O)c(-c3cccc(C(=O)N4CCN(c5ccc(Cl)cc5)CC4)c3)cc12 [Compound 3020] | < 0.1 µM | 0.0094 µM
CNC(=O)c1c(-c2ccc(F)cc2)oc2cc(N(CCF)S(C)(=O)=O)c(-c3cccc(C(=O)N[C@H](C)C(F)(F)F)c3)cc12 [Compound 3021] | < 0.1 µM | –
CNC(=O)c1c(-c2ccc(F)cc2)oc2cc(N(CCF)S(C)(=O)=O)c(-c3cccc(C(=O)N4CCCC4c4cccnc4)c3)cc12 (stereo not shown) [Compound 3022] | < 0.1 µM | –
CNC(=O)c1c(-c2ccc(F)cc2)oc2cc(N(CCF)S(C)(=O)=O)c(-c3cccc(C(=O)N4[C@H](C)CC[C@H]4C)c3)cc12 [Compound 3023] | < 0.1 µM | –
CNC(=O)c1c(-c2ccc(F)cc2)oc2cc(N(CCF)S(C)(=O)=O)c(-c3cccc(C(=O)N4CCCC4C)c3)cc12 (stereo not shown) [Compound 3024] | < 0.1 µM | –
CNC(=O)c1c(-c2ccc(F)cc2)oc2cc(N(CCF)S(C)(=O)=O)c(-c3cccc(C(=O)N4CCN(c5ccccc5)CC4)c3)cc12 [Compound 3025] | < 0.1 µM | –
CNC(=O)c1c(-c2ccc(F)cc2)oc2cc(N(CCF)S(C)(=O)=O)c(-c3cccc(C(=O)N4[C@@H](COC)CC[C@@H]4COC)c3)cc12 [Compound 3026] | 0.1 to 1 µM | 0.332 µM
CCC1CCCN1C(=O)c1cccc(-c2cc3c(C(=O)NC)c(-c4ccc(F)cc4)oc3cc2N(CCF)S(C)(=O)=O)c1 (stereo not shown) [Compound 3027] | < 0.1 µM | –
CNC(=O)c1c(-c2ccc(F)cc2)oc2cc(N(CCF)S(C)(=O)=O)c(-c3cccc(C(=O)N4CCN(C(=O)OC(C)(C)C)CC4)c3)cc12 [Compound 3028] | < 0.1 µM | –
CNC(=O)c1c(-c2ccc(F)cc2)oc2cc(N(CCF)S(C)(=O)=O)c(-c3cccc(C(=O)N4CCC[C@H]4C(=O)OC(C)(C)C)c3)cc12 [Compound 3029] | < 0.1 µM | –
CNC(=O)c1c(-c2ccc(F)cc2)oc2cc(N(CCF)S(C)(=O)=O)c(-c3cccc(C(=O)N4CCC[C@@H]4CO)c3)cc12 [Compound 3030] | 0.1 to 1 µM | 0.139 µM
CNC(=O)c1c(-c2ccc(F)cc2)oc2cc(N(CCF)S(C)(=O)=O)c(-c3cccc(C(=O)N4CCN(C(=O)OC(C)(C)C)CC4c4ccccc4)c3)cc12 (stereo not shown) [Compound 3031] | < 0.1 µM | –
CNC(=O)c1c(-c2ccc(F)cc2)oc2cc(N(CCF)S(C)(=O)=O)c(-c3cccc(C(=O)N4CCN(c5cccnc5)CC4)c3)cc12 [Compound 3032] | > 1 µM | 2.64 µM
CNC(=O)c1c(-c2ccc(F)cc2)oc2cc(N(CCF)S(C)(=O)=O)c(-c3cccc(C(=O)N4CCN(CC(C)C)CC4)c3)cc12 [Compound 3033] | < 0.1 µM | –
CNC(=O)c1c(-c2ccc(F)cc2)oc2cc(N(CCF)S(C)(=O)=O)c(-c3cccc(C(=O)N4CCC(c5ccc(F)cc5)C4)c3)cc12 (stereo not shown) [Compound 3034] | < 0.1 µM | 0.0117 µM
CNC(=O)c1c(-c2ccc(F)cc2)oc2cc(N(CCF)S(C)(=O)=O)c(-c3cccc(C(=O)N4CCC[C@H]4CO)c3)cc12 [Compound 3035] | 0.1 to 1 µM | –
CNC(=O)c1c(-c2ccc(F)cc2)oc2cc(N(CCF)S(C)(=O)=O)c(-c3cccc(C(=O)N4CCC(NC(C)=O)C4)c3)cc12 (stereo not shown) [Compound 3036] | > 1 µM | –
CNC(=O)c1c(-c2ccc(F)cc2)oc2cc(N(CCF)S(C)(=O)=O)c(-c3cccc(C(=O)N4CC[C@H](O)C4)c3)cc12 [Compound 3037] | > 1 µM | –
CNC(=O)c1c(-c2ccc(F)cc2)oc2cc(N(CCF)S(C)(=O)=O)c(-c3cccc(C(=O)N4CC[C@@H](NC(=O)OC(C)(C)C)C4)c3)cc12 [Compound 3038] | < 0.1 µM | –
CNC(=O)c1c(-c2ccc(F)cc2)oc2cc(N(CCF)S(C)(=O)=O)c(-c3cccc(C(=O)N4CCC(O)C4)c3)cc12 (stereo not shown) [Compound 3039] | > 1 µM | 1.61 µM
CNC(=O)c1c(-c2ccc(F)cc2)oc2cc(N(CCF)S(C)(=O)=O)c(-c3cccc(C(=O)N4CCC(c5cccc(Cl)c5)C4)c3)cc12 (stereo not shown) [Compound 3040] | < 0.1 µM | 0.0413 µM
CNC(=O)c1c(-c2ccc(F)cc2)oc2cc(N(CCF)S(C)(=O)=O)c(-c3cccc(C(=O)N4CCC[C@H]4C(=O)OC)c3)cc12 [Compound 3041] | 0.1 to 1 µM | –
CNC(=O)c1c(-c2ccc(F)cc2)oc2cc(N(CCF)S(C)(=O)=O)c(-c3cccc(C(=O)N4CC(NC(=O)OC(C)(C)C)C4)c3)cc12 [Compound 3042] | 0.1 to 1 µM | 0.138 µM
